Experimental data taken from patent publication US7375180B2, “Methods and compositions related to IRM compounds and Toll-like receptor 8” (3M Innovative Properties Company, priority 2003, dated 2008).

Key:
[1] = system: HEK293-vector; assay: NF-κB-luciferase reporter activation in HEK293-vector control cells, 10 μM IRM (Example 1); format: cell-based, human; settings: 16 hours, luciferase signal, vector-transfected cells; for fold induction at 10 µM: Homo sapiens, read-out: Fold Increase Over DMSO Control, HEK293-vector
Excerpt: (§1) HEK293 cells, derived from human embryonic kidney cells, may be co-transfected with (1) either a control vector (HEK293-vector) or a vector construct including human TLR8 (HEK293-TLR8), and (2) an NF-κB-luciferase reporter. The NF-κB-luciferase reporter provides a luciferase signal upon NF-κB activation in a transfected cell. Thus, TLR8-mediated NF-κB activity can be detected by exposing the cells transfected with vector and the cells transfected with the TLR8 construct to a test compound, then comparing the luciferase signal of the vector-transfected cells with the luciferase signal of the cells transfected with the TLR8 construct.
(§2) HEK293 cells were cultured in 90% Minimum Essential Medium (MEM) with 2 mM L-glutamine and Earle's Balanced Salt Solution (Invitrogen Corp., Rockville, Md.) adjusted to contain 1.5 g/L sodium bicarbonate, 0.1 mM non-essential amino acids, and 1.0 mM sodium pyruvate; 10% heat-inactivated fetal calf serum. The cells were incubated at 37° C., 8% CO2.
(§3) The cells were co-transfected with (1) pIRES (BD Biosciences Clontech, Palo Alto, Calif.) either (a) unmodified (HEK293-vector) or (b) containing human TLR8 (HEK293-TLR8), and (2) NFkB-luc reporter (Stratagene, La Jolla, Calif.) in a 10:1 ratio with Fugene 6 transfection reagent (Roche Diagnostics Corp., Indianapolis, Ind.) following the manufacturer's instructions.
(§4) The cells were stimulated with 1 μL of IRM compounds at 1 mM in DMSO (final IRM concentration of 10 μM) or 1 μL DMSO as a control. The plates were then incubated an additional 16 hours at 37° C., 5% CO2. Luminescence was measured on an LMAX luminometer (Molecular Devices Corp., Sunnyvale, Calif.).

[2] = target: T1, TLR8 (Homo sapiens, UniProt Q9NR97); assay: NF-κB-luciferase reporter activation in HEK293-TLR8 cells, 10 μM IRM (Example 1); format: cell-based; parameters: expressed in transfected cells; host or cells: HEK293 (ATCC CRL-1573), pIRES vector, G-418 selected, co-transfected with NFkB-luc reporter; settings: for Fold Increase Over DMSO Control, HEK293-TLR8: 16 hours, luciferase signal, TLR8-transfected cells; for Fold Increase Over DMSO Control, HEK293-TLR8 / HEK293-vector: ratio of TLR8-transfected to vector-transfected cells
T1 sequence (Q9NR97 27-1041): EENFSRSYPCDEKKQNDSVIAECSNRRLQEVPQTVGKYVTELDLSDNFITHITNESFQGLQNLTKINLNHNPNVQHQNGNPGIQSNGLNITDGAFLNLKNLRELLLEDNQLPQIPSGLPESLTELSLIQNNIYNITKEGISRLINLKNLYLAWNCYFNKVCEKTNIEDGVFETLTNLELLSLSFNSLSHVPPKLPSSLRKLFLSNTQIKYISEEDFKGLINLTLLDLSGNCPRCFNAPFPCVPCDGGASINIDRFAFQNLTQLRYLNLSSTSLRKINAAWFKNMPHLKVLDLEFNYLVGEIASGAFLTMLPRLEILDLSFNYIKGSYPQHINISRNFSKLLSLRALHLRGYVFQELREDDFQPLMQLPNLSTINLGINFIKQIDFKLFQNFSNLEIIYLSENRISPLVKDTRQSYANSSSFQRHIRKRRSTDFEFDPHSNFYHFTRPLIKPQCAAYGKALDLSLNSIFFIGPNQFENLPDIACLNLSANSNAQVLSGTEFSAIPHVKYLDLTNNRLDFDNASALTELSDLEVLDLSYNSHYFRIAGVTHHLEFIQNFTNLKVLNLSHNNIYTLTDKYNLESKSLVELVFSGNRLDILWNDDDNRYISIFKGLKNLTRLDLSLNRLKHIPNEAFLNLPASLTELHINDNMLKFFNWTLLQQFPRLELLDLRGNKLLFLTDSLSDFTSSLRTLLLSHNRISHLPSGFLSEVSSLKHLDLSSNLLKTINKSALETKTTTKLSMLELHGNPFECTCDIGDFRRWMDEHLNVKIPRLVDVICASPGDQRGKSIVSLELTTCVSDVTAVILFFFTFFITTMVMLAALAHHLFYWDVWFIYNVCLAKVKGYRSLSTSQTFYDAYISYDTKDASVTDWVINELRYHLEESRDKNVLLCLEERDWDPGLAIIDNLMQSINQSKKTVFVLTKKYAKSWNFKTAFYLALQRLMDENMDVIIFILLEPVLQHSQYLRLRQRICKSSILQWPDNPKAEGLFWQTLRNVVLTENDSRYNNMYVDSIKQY
Excerpt: as §1, §2, §3, §4

[3] = target: T1, TLR8; assay: Identification as TLR8 activator or non-activator (negative control compound); format: cell-based; settings: used as negative control in monocyte, dendritic cell and macrophage tests

Row | Structure (SMILES) | Fold Increase Over DMSO Control, HEK293-TLR8 [2] [fold] | Fold Increase Over DMSO Control, HEK293-TLR8 / HEK293-vector [2] | TLR8 activation (in words) [3] | Fold Increase Over DMSO Control, HEK293-vector [1] [fold] | fold induction at 10 µM [1]
1 | COCCc1nc2c(N)nc3ccccc3c2n1CC(C)(C)O [IRM 2, 4-amino-α,α-dimethyl-2-methoxyethyl-1H-imidazo[4,5-c]quinoline-1-ethanol] | 10.18 | 8.8 | – | 1.16 | –
2 | CCOCc1nc2c(N)nc3ccccc3c2n1CCOCCCOCc1ccccc1 [IRM 4, 1-{2-[3-(benzyloxy)propoxy]ethyl}-2-(ethoxymethyl)-1H-imidazo[4,5-c]quinolin-4-amine] | 2.64 | 6.4 | – | – | 0.41
3 | CCCCNC(=O)NCCCCn1c(CCCC)nc2c(N)nc3cccnc3c21 [IRM 5, N-[4-(4-amino-2-butyl-1H-imidazo[4,5-c][1,5]naphthyridin-1-yl)butyl]-n′-butylurea] | 2.13 | 2.5 | – | 0.84 | –
4 | CCCCc1nc2c(N)nc3cccnc3c2n1CCNC(=O)C(N)CC(C)C (stereo not shown) [IRM 6, N^1-[2-(4-amino-2-butyl-1H-imidazo[4,5-c][1,5]naphthyridin-1-yl)ethyl]-2-amino-4-methylpentanamide] | 9.24 | 7.8 | – | – | 1.19
5 | Nc1nc2ccccc2c2c1ncn2CCCCNC(=O)c1ccccc1Oc1ccccc1 [IRM 7, N^1-[4-(4-amino-1H-imidazo[4,5-c]quinolin-1-yl)butyl]-2-phenoxybenzamide] | 10.69 | 10.5 | – | – | 1.02
6 | Nc1nc2ccccc2c2c1ncn2CCOCC#Cc1ccncc1.O=C(O)C(F)(F)F.O=C(O)C(F)(F)F [IRM 8, 1-(2-{[3-(4-pyridyl)-2-propynyl]oxy}ethyl)-1H-imidazo[4,5-c]quinolin-4-amine bis(trifluoroacetate)] | 2.38 | 2.0 | – | – | 1.18
7 | CCCCc1nc2c(N)nc3ccccc3c2n1CCNS(C)(=O)=O [IRM 9, N-[2-(4-amino-2-butyl-1H-imidazo[4,5-c]quinolin-1-yl)ethyl]methanesulfonamide] | 8.64 | 11.2 | – | – | 0.77
8 | COCCc1nc2c(N)nc3ccccc3c2n1CCOCCNC(=O)Nc1ccccc1 [IRM 10, N-(2-{2-[4-amino-2-(2-methoxyethyl)-1H-imidazo[4,5-c]quinolin-1-yl]ethoxy}ethyl)-n′-phenylurea] | 7.25 | 6.7 | – | 1.08 | –
9 | CCOCc1nc2c(N)nc3ccccc3c2n1CCCNC(=S)Nc1cccc(C#N)c1 [IRM 14, N-{3-[4-amino-2-(ethoxymethyl)-1H-imidazo[4,5-c]quinolin-1-yl]propyl}-n′-(3-cyanophenyl)thiourea] | 10.00 | 7.9 | – | 1.26 | –

More lines, main results first:

Row | Fold Increase Over DMSO Control, HEK293-TLR8 [2] [fold] | Fold Increase Over DMSO Control, HEK293-TLR8 / HEK293-vector [2] | TLR8 activation (in words) [3] | Structure (SMILES) | Fold Increase Over DMSO Control, HEK293-vector [1] [fold] | fold induction at 10 µM [1]
10 | 3.14 | 2.1 | – | CCOCc1nc2c(N)nc3ccccc3c2n1CC(C)(C)N [IRM 11, 1-(2-amino-2-methylpropyl)-2-(ethoxymethyl)-1H-imidazo[4,5-c]quinolin-4-amine] | – | 1.47
11 | 6.04 | 5.2 | – | CCc1nc2c(N)nc3ccccc3c2n1CCCCS(=O)(=O)c1cc(Cl)cc(Cl)c1 [IRM 12, 1-{4-[(3,5-dichlorophenyl)sulfonyl]butyl}-2-ethyl-1H-imidazo[4,5-c]quinolin-4-amine] | – | 1.16
12 | 2.33 | 2.3 | – | CCOCc1nc2c(N)nc3ccccc3c2n1CCOCCNC(=O)NC1CCCCC1 [IRM 13, N-(2-{2-[4-amino-2-(ethoxymethyl)-1H-imidazo[4,5-c]quinolin-1-yl]ethoxy}ethyl)-n′-cyclohexylurea] | 0.99 | –
13 | 2.14 | 2.7 | – | CCCCc1nc2c(N)nc3ccccc3c2n1CC(C)(C)CNC(=O)c1ccccc1 [IRM 15, N-[3-(4-amino-2-butyl-1H-imidazo[4,5-c]quinolin-1-yl)-2,2-dimethylpropyl]benzamide] | – | 0.78
14 | – | – | does not activate TLR8 | CCc1nc2c(N)nc3ccccc3c2n1CCCCNS(C)(=O)=O [IRM 16, N-[4-(4-amino-2-ethyl-1H-imidazo[4,5-c]quinolin-1-yl)butyl]methanesulfonamide] | – | –
